What is called melting point is the temperature of the solid-liquid transition.

SMILES strings stand for the structures. Where only a bound is given, the exact number is not on record here.

Consider 7 compounds from patent US11180462B2, “Microbiocidal oxadiazole derivatives” (SYNGENTA PARTICIPATIONS AG, priority 2015, dated 2021).

For data set [1], the system named is Puccinia recondita f. Sp. Tritici. Nature of the data set: Fungicidal activity against Puccinia recondita f. sp. tritici / wheat / leaf disc preventative (brown rust). The format is in vivo. As to conditions: foliar, 200 ppm in the applied formulation, wheat leaf segments, preventative, compared to untreated control leaf disks, read-out: disease control. The method, boiled down:
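Preventative leaf-segment test, wheat cv. Kanzler on water agar. Spray compound at 200 ppm, inoculate with spores 1 day later; 19° C., 75% rh, 12/12 h light. Read-out: % disease control vs untreated, 7 to 9 days after application.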

Data set [2] shares this test system. The experiment in a line: Fungicidal activity against Puccinia recondita f. sp. tritici / wheat / leaf disc curative (brown rust). The format is in vivo. To be noted: foliar, 24 h, 200 ppm in the applied formulation, wheat leaf segments, curative (applied 1 day after inoculation), compared to untreated control leaf disks, read-out: disease control. The method, boiled down:
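Curative leaf-segment test: compound diluted in water applied 1 day after spore inoculation of cv. Kanzler wheat segments on agar. Conditions 19° C, 75% RH, 12 h/12 h light cycle. Read-out: % disease control relative to untreated check, 6 to 8 days after application.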

In a further data set the test system is Phakopsora Pachyrhizi. The experiment in a line: Fungicidal activity against Phakopsora pachyrhizi / soybean / leaf disc preventative (Asian soybean rust). Format: in vivo. As to conditions: foliar, 200 ppm in the applied formulation, soybean leaf disks, compared to untreated control leaf disks, read-out: disease control. The method, boiled down:
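Preventative soybean leaf-disc test: discs on water agar sprayed with diluted formulated compound, inoculated one day later with spores on the lower surface. Held 24–36 h dark at 20°C, 75% rh, then 12 h light/day; percent disease control versus untreated discs scored 12–14 days after application.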

In data set [3] the test system is Glomerella lagenarium (Colletotrichum lagenarium). The experiment in a line: Fungicidal activity against Glomerella lagenarium (Colletotrichum lagenarium) liquid culture / cucumber / preventative (anthracnose). Format: cell-based. As to conditions: Colletotrichum orbiculare; 20 ppm in the applied formulation; liquid culture (PDB), growth inhibition measured photometrically after 3 to 4 days; compared to untreated control; read-out: disease control. The method, boiled down: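 Photometric read-out of fungal growth after 2–7 days, expressed as percent antifungal activity versus untreated check. Cryo-stored conidia in PDB; compound at 20 ppm; dark, 24 °C, 96% RH.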

On to `CON(Cc1ccc(-c2noc(C(F)(F)F)n2)cc1)C(=O)NCC(F)(F)F` [Compound 3.38, 1-methoxy-3-(2,2,2-trifluoroethyl)-1-[[4-[5-(trifluoromethyl)-1,2,4-oxadiazol-3-yl]phenyl]methyl]urea], for which the melting point fell in the range of 95 to 98 °C. For the same compound, the pest or weed control at 200 ppm in data set [1] is no less than 80%. For the same compound, the pest or weed control at 200 ppm in data set [2] was no less than 80%. Moreover, in the data set with Phakopsora Pachyrhizi, the pest or weed control at 200 ppm was no less than 80%. Besides, the inhibition of growth at 20 ppm in data set [3] is no less than 80%.

Compound `C#CCNC(=O)N(Cc1ccc(-c2noc(C(F)(F)F)n2)cc1)OC` [Compound 3.43, 1-methoxy-3-prop-2-ynyl-1-[[4-[5-(trifluoromethyl)-1,2,4-oxadiazol-3-yl]phenyl]methyl]urea] came in with a melting point of 88.9 to 90.6 °C. Further, in data set [1], the pest or weed control at 200 ppm was no less than 80%. Further, the pest or weed control at 200 ppm in data set [2] is no less than 80%. Further, in the data set on Phakopsora Pachyrhizi, the pest or weed control at 200 ppm is no less than 80%. The inhibition of growth at 20 ppm in data set [3] is no less than 80%.

In turn, `CON(Cc1ccc(-c2noc(C(F)(F)F)n2)cc1)C(=O)NC(C)C` [Compound 3.42, 3-isopropyl-1-methoxy-1-[[4-[5-(trifluoromethyl)-1,2,4-oxadiazol-3-yl]phenyl]methyl]urea] showed a melting point of 106 to 107.3 °C. In data set [1], the pest or weed control at 200 ppm was no less than 80%. For the same compound, the pest or weed control at 200 ppm in data set [2] is no less than 80%. The pest or weed control at 200 ppm with Phakopsora Pachyrhizi was no less than 80%. The inhibition of growth at 20 ppm in data set [3] was no less than 80%.

`CNC(=O)N(C)Cc1ccc(-c2noc(C(F)(F)F)n2)cc1` [Compound 3.37, 1,3-dimethyl-1-[[4-[5-(trifluoromethyl)-1,2,4-oxadiazol-3-yl]phenyl]methyl]urea] gave a melting point of 95 to 98 °C. For the same compound, the pest or weed control at 200 ppm in data set [1] is no less than 80%. Besides, the pest or weed control at 200 ppm in data set [2] is no less than 80%. Further, in the data set with Phakopsora Pachyrhizi, the pest or weed control at 200 ppm was no less than 80%. Also, the inhibition of growth at 20 ppm in data set [3] is no less than 80%.

With `O=C(C1CC1)N(O)Cc1ccc(-c2noc(C(F)(F)F)n2)cc1` [Compound 1.607, N-hydroxy-N-[[4-[5-(trifiuoromethyl)-1,2,4-oxadiazol-3-yl]phenyl]methyl]-cyclopropane-carboxamide], the melting point lay within 141.2 to 143.5 °C. For the same compound, the pest or weed control at 200 ppm in data set [1] was no less than 80%. Moreover, in data set [2], the pest or weed control at 200 ppm is no less than 80%. The pest or weed control at 200 ppm with Phakopsora Pachyrhizi is no less than 80%. Further, the inhibition of growth at 20 ppm in data set [3] was no less than 80%.

In the case of `CON(Cc1ccc(-c2noc(C(F)(F)F)n2)cc1)C(=O)NC1(C)CC1` [Compound 3.46, 1-methoxy-3-(1-methylcyclopropyl)-1-[[4-[5-(trifluoromethyl)-1,2,4-oxadiazol-3-yl]phenyl]methyl]urea], the melting point was 93 to 97 °C. Besides, the pest or weed control at 200 ppm in data set [1] was no less than 80%. For the same compound, in data set [2], the pest or weed control at 200 ppm is no less than 80%. Also, the pest or weed control at 200 ppm in the data set with Phakopsora Pachyrhizi was no less than 80%. Moreover, the inhibition of growth at 20 ppm in data set [3] was no less than 80%.

Compound `CCOC(=O)C1(NC(=O)N(Cc2ccc(-c3noc(C(F)(F)F)n3)cc2)OC)CC1` [Compound 3.48, ethyl 1-[[methoxy-[[4-[5-(trifluoromethyl)-1,2,4-oxadiazol-3-yl]phenyl]methyl]-carbamoyl]amino]-cyclopropanecarboxylate] yielded a melting point of 93 to 97 °C. In data set [1], the pest or weed control at 200 ppm was no less than 80%. The pest or weed control at 200 ppm in data set [2] was no less than 80%. Besides, the pest or weed control at 200 ppm in the data set on Phakopsora Pachyrhizi was no less than 80%. Further, the inhibition of growth at 20 ppm in data set [3] is no less than 80%.
